Test results: patent US8247211B2, “Glycopeptide antibiotics” (American Cyanamid Company, priority 2001, dated 2012)
Values after ≈ are worked out from the molar mass of the structure shown.

What was measured:
Test in all cases: In vitro antibacterial evaluation: minimum inhibitory concentration (MIC), broth dilution method
Type in all cases: cell-based
Escherichia coli [1] = test system: Escherichia coli
Escherichia coli [2] = test system: Escherichia coli; remark: listed apart in the source
In short: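 Susceptibility determined by NCCLS-recommended broth dilution (M7-A2), Muller-Hinton II […]. Concentration span 64-0.06 μg/mL, inoculum 5×10^5 CFU/mL. Isolates include strains resistant to methicillin, penicillin and/or vancomycin.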

Staphylococcus sp. = details: 18 hours at 35° C.
In short: (§1)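 First, organisms are seeded at 5×10^5 CFU/mL into Muller-Hinton II […]. Next, antibiotic is applied across 64-0.06 μg/mL by broth dilution (NCCLS M7-A2). Finally, the lowest inhibitory concentration is recorded as MIC.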

Enterococcus sp. = test system: Enterococcus sp.
In short: as §1

Streptococcus sp. = details: 18 hours at 35° C.
In short: as §1

Compound: CC(C)CC(=O)OC1C(OC2C(CO)OC(Oc3ccc(CC4NC(=O)C(C(C)c5ccc(F)cc5)NC(=O)CNC(=O)C(CO)NC(=O)C(C(O)C5CNC(=N)N5C5OC(CO)C(O)C(O)C5O)NC(=O)C(C(O)C5CNC(=N)N5)NC4=O)cc3)C(O)C2O)OC(CO)C(O)C1O (stereo not drawn) [Example 261b, Cyclo[glycyl-4-fluoro-β-methylphenylalanyl-O-[4-O-[2-O-(3-methylbutanoyl)hexopyranosyl]-hexopyranosyl]tyrosyl-3-(2-iminoimidazolidin-4-yl)seryl-3-(3-hexopyranosyl-2-imino-imidazolidin-4-yl)serylseryl]]
- MIC Escherichia coli (ATCC 25922) (Escherichia coli [1]): >64 µg/mL
- MIC Escherichia coli (GC 4559) (Escherichia coli [2]): >64 µg/mL
- MIC Escherichia coli (GC 4560) (Escherichia coli [2]): 4 µg/mL (≈ 2.86 µM)
- MIC Coagulase Negative Staphylococcus (GC 4547) (Staphylococcus sp.): 8 µg/mL (≈ 5.72 µM)
- MIC Coagulase Negative Staphylococcus (GC 4548) (Staphylococcus sp.): 4 µg/mL (≈ 2.86 µM)
- MIC Coagulase Negative Staphylococcus (GC 4549) (Staphylococcus sp.): 4 µg/mL (≈ 2.86 µM)
- MIC Coagulase Negative Staphylococcus (GC 4551) (Staphylococcus sp.): 8 µg/mL (≈ 5.72 µM)
- MIC Staphylococcus aureus (ATCC 29213) (Staphylococcus sp.): 8 µg/mL (≈ 5.72 µM)
- MIC Staphylococcus aureus (GC 1131) (Staphylococcus sp.): 16 µg/mL (≈ 11.4 µM)
- MIC Staphylococcus aureus (GC 4541) (Staphylococcus sp.): 16 µg/mL (≈ 11.4 µM)
- MIC Staphylococcus aureus (GC 4542) (Staphylococcus sp.): 16 µg/mL (≈ 11.4 µM)
- MIC Staphylococcus aureus (GC 4544) (Staphylococcus sp.): 8 µg/mL (≈ 5.72 µM)
- MIC Staphylococcus aureus (GC 4545) (Staphylococcus sp.): 16 µg/mL (≈ 11.4 µM)
- MIC Staphylococcus aureus-SMITH (GC 4543) (Staphylococcus sp.): 8 µg/mL (≈ 5.72 µM)
- MIC Staphylococcus haemolyticus (GC 4546) (Staphylococcus sp.): 8 µg/mL (≈ 5.72 µM)
- MIC Enterococcus avium (GC 4558) (Enterococcus sp.): 64 µg/mL (≈ 45.8 µM)
- MIC Enterococcus faecalis (ATCC 29212) (Enterococcus sp.): >64 µg/mL
- MIC Enterococcus faecalis (GC 2242) (Enterococcus sp.; 18 hours at 35° C.): 64 µg/mL (≈ 45.8 µM)
- MIC Enterococcus faecalis (GC 4552) (Enterococcus sp.; 18 hours at 35° C.): 64 µg/mL (≈ 45.8 µM)
- MIC Enterococcus faecalis (GC 4553) (Enterococcus sp.): 64 µg/mL (≈ 45.8 µM)
- MIC Enterococcus faecalis (GC 4554) (Enterococcus sp.): >64 µg/mL
- MIC Enterococcus faecium (GC 2243) (Enterococcus sp.): >64 µg/mL
- MIC Enterococcus faecium (GC 4556) (Enterococcus sp.): 64 µg/mL (≈ 45.8 µM)
- MIC Enterococcus faecium (GC 4557) (Enterococcus sp.): 16 µg/mL (≈ 11.4 µM)
- MIC Streptococcus agalactiae (GC 4564) (Streptococcus sp.): 8 µg/mL (≈ 5.72 µM)
- MIC Streptococcus pyogenes (ID-3187) (Streptococcus sp.): 4 µg/mL (≈ 2.86 µM)

Compound: CC(c1ccccc1)C1NC(=O)CNC(=O)C(CO)NC(=O)C(C(O)C2CNC(=N)N2C2OC(CO)C(O)C(O)C2O)NC(=O)C(C(O)C2CNC(=N)N2)NC(=O)C(Cc2ccc(OC3OC(CO)C(OC4OC(COC(=O)NCc5ccccc5)C(O)C(O)C4O)C(O)C3O)cc2)NC1=O (stereo not drawn) [Example 257b, γ-O-[(Benzylamino)carbonyl]-cyclo[glycyl-β-methylphenylalanyl-O-(4-O-hexopyranosylhexopyranosyl)tyrosyl-3-(2-iminoimidazolidin-4-yl)seryl-3-(3-hexopyranosyl-2-iminoimidazolidin-4-yl)serylseryl]]
- MIC Escherichia coli (ATCC 25922) (Escherichia coli [1]): >0.5 µg/mL
- MIC Escherichia coli (GC 4559) (Escherichia coli [2]): >0.5 µg/mL
- MIC Escherichia coli (GC 4560) (Escherichia coli [2]): 0.5 µg/mL (≈ 0.35 µM)
- MIC Coagulase Negative Staphylococcus (GC 4547) (Staphylococcus sp.): 2 µg/mL (≈ 1.4 µM)
- MIC Coagulase Negative Staphylococcus (GC 4548) (Staphylococcus sp.): 2 µg/mL (≈ 1.4 µM)
- MIC Coagulase Negative Staphylococcus (GC 4549) (Staphylococcus sp.): 2 µg/mL (≈ 1.4 µM)
- MIC Coagulase Negative Staphylococcus (GC 4551) (Staphylococcus sp.): 4 µg/mL (≈ 2.8 µM)
- MIC Coagulase Negative Staphylococcus (GC 6257) (Staphylococcus sp.; Coagulase Negative Staphylococcus (GC 6257)): 1 µg/mL (≈ 0.7 µM)
- MIC Staphylococcus aureus (ATCC 29213) (Staphylococcus sp.): 0.5 µg/mL (≈ 0.35 µM)
- MIC Staphylococcus aureus (GC 1131) (Staphylococcus sp.): 0.5 µg/mL (≈ 0.35 µM)
- MIC Staphylococcus aureus (GC 3051) (Staphylococcus sp.; Staphylococcus aureus (GC 3051)): 0.5 µg/mL (≈ 0.35 µM)
- MIC Staphylococcus aureus (GC 3053) (Staphylococcus sp.; Staphylococcus aureus (GC 3053)): 0.5 µg/mL (≈ 0.35 µM)
- MIC Staphylococcus aureus (GC 4541) (Staphylococcus sp.): 0.5 µg/mL (≈ 0.35 µM)
- MIC Staphylococcus aureus (GC 4542) (Staphylococcus sp.): 0.5 µg/mL (≈ 0.35 µM)
- MIC Staphylococcus aureus (GC 4544) (Staphylococcus sp.): 0.5 µg/mL (≈ 0.35 µM)
- MIC Staphylococcus aureus (GC 4545) (Staphylococcus sp.): 0.5 µg/mL (≈ 0.35 µM)
- MIC Staphylococcus aureus-SMITH (GC 4543) (Staphylococcus sp.): 0.5 µg/mL (≈ 0.35 µM)
- MIC Staphylococcus haemolyticus (GC 4546) (Staphylococcus sp.): 2 µg/mL (≈ 1.4 µM)
- MIC Enterococcus avium (GC 4558) (Enterococcus sp.): 0.5 µg/mL (≈ 0.35 µM)
- MIC Enterococcus faecalis (ATCC 29212) (Enterococcus sp.): 0.5 µg/mL (≈ 0.35 µM)
- MIC Enterococcus faecalis (GC 2242) (Enterococcus sp.; 18 hours at 35° C.): 0.5 µg/mL (≈ 0.35 µM)
- MIC Enterococcus faecalis (GC 2691) (Enterococcus sp.; Enterococcus faecalis (GC 2691), 18 hours at 35° C.): 0.5 µg/mL (≈ 0.35 µM)
- MIC Enterococcus faecalis (GC 3059) (Enterococcus sp.; Enterococcus faecalis (GC 3059), 18 hours at 35° C.): 0.5 µg/mL (≈ 0.35 µM)
- MIC Enterococcus faecalis (GC 4552) (Enterococcus sp.; 18 hours at 35° C.): >0.5 µg/mL
- MIC Enterococcus faecalis (GC 4553) (Enterococcus sp.): 0.5 µg/mL (≈ 0.35 µM)
- MIC Enterococcus faecalis (GC 4554) (Enterococcus sp.): >0.5 µg/mL
- MIC Enterococcus faecalis (GC 6189) (Enterococcus sp.; Enterococcus faecalis (GC 6189)): 0.5 µg/mL (≈ 0.35 µM)
- MIC Enterococcus faecium (GC 2243) (Enterococcus sp.): 16 µg/mL (≈ 11.2 µM)
- MIC Enterococcus faecium (GC 4556) (Enterococcus sp.): 16 µg/mL (≈ 11.2 µM)
- MIC Enterococcus faecium (GC 4557) (Enterococcus sp.): 2 µg/mL (≈ 1.4 µM)
- MIC Streptococcus agalactiae (GC 4564) (Streptococcus sp.): 1 µg/mL (≈ 0.7 µM)
- MIC Streptococcus pneumoniae (ATCC 6301) (Streptococcus sp.; Streptococcus pneumoniae (ATCC 6301)): 0.25 µg/mL (≈ 0.175 µM)
- MIC Streptococcus pneumoniae (GC 1894) (Streptococcus sp.; Streptococcus pneumoniae (GC 1894)): 0.25 µg/mL (≈ 0.175 µM)
- MIC Streptococcus pneumoniae (GC 4565) (Streptococcus sp.; Streptococcus pneumoniae (GC 4565)): 0.5 µg/mL (≈ 0.35 µM)
- MIC Streptococcus pyogenes (GC 4563) (Streptococcus sp.; Streptococcus pyogenes (GC 4563)): 0.12 µg/mL (≈ 0.084 µM)

Compound: CC(c1ccc(F)cc1)C1NC(=O)CNC(=O)C(CO)NC(=O)C(C(O)C2CNC(=N)N2C2OC(CO)C(O)C(O)C2O)NC(=O)C(C(O)C2CNC(=N)N2)NC(=O)C(Cc2ccc(OC3OC(CO)C(OC4OC(CO)C(O)C(O)C4O)C(O)C3O)cc2)NC1=O (stereo not drawn) [Example 261a, Cyclo[glycyl-4-fluoro-β-methylphenylalanyl-O-(4-O-hexopyranosylhexopyranosyl)tyrosyl-3-(2-iminoimidazolidin-4-yl)seryl-3-(3-hexopyranosyl-2-iminoimidazolidin-4-yl)serylseryl]]
- MIC Escherichia coli (ATCC 25922) (Escherichia coli [1]): >64 µg/mL
- MIC Escherichia coli (GC 4559) (Escherichia coli [2]): >64 µg/mL
- MIC Escherichia coli (GC 4560) (Escherichia coli [2]): >64 µg/mL
- MIC Coagulase Negative Staphylococcus (GC 4547) (Staphylococcus sp.): >64 µg/mL
- MIC Coagulase Negative Staphylococcus (GC 4548) (Staphylococcus sp.): >64 µg/mL
- MIC Coagulase Negative Staphylococcus (GC 4549) (Staphylococcus sp.): >64 µg/mL
- MIC Coagulase Negative Staphylococcus (GC 4551) (Staphylococcus sp.): >64 µg/mL
- MIC Staphylococcus aureus (ATCC 29213) (Staphylococcus sp.): >64 µg/mL
- MIC Staphylococcus aureus (GC 1131) (Staphylococcus sp.): >64 µg/mL
- MIC Staphylococcus aureus (GC 4541) (Staphylococcus sp.): >64 µg/mL
- MIC Staphylococcus aureus (GC 4542) (Staphylococcus sp.): >64 µg/mL
- MIC Staphylococcus aureus (GC 4544) (Staphylococcus sp.): >64 µg/mL
- MIC Staphylococcus aureus (GC 4545) (Staphylococcus sp.): >64 µg/mL
- MIC Staphylococcus aureus-SMITH (GC 4543) (Staphylococcus sp.): >64 µg/mL
- MIC Staphylococcus haemolyticus (GC 4546) (Staphylococcus sp.): >64 µg/mL
- MIC Enterococcus avium (GC 4558) (Enterococcus sp.): >64 µg/mL
- MIC Enterococcus faecalis (ATCC 29212) (Enterococcus sp.): >64 µg/mL
- MIC Enterococcus faecalis (GC 2242) (Enterococcus sp.; 18 hours at 35° C.): >64 µg/mL
- MIC Enterococcus faecalis (GC 4552) (Enterococcus sp.; 18 hours at 35° C.): >64 µg/mL
- MIC Enterococcus faecalis (GC 4553) (Enterococcus sp.): >64 µg/mL
- MIC Enterococcus faecalis (GC 4554) (Enterococcus sp.): >64 µg/mL
- MIC Enterococcus faecium (GC 2243) (Enterococcus sp.): >64 µg/mL
- MIC Enterococcus faecium (GC 4556) (Enterococcus sp.): >64 µg/mL
- MIC Enterococcus faecium (GC 4557) (Enterococcus sp.): >64 µg/mL
- MIC Streptococcus agalactiae (GC 4564) (Streptococcus sp.): >64 µg/mL
- MIC Streptococcus pyogenes (ID-3187) (Streptococcus sp.): >64 µg/mL
